Assay: xn = mol fraction of the nth substance listed
Conditions: 291.15 K, Liquid, Vibrating tube method

O=C=O [carbon dioxide] + CCO
Conditions	mass density [kg/m3]
x1 = 0.184	819.5
x1 = 0.227	826.4
x1 = 0.304	836.8
x1 = 0.455	855.1
x1 = 0.728	865.9
x1 = 0.838	856.5
x1 = 0.951	828
x1 = 0.983	811.3
x1 = 0.996	800.6

— the NIST ThermoML archive (doi:10.1021/je034243t)
